Measured values: ChEMBL document CHEMBL1129235, “Discovery of the hemifumarate and (alpha-L-alanyloxy)methyl ether as prodrugs of an antirheumatic oxindole: prodrugs for the enolic OH group” (J Med Chem, 1996)
Converted amounts (≈) assume the structure as drawn.

Columns and labels:
[1] = organism: Rattus norvegicus; experiment: Relative bioavailability of prodrugs in rat; type: ADME, organism-based; conditions: in vivo
[2] = (§1) Aqueous solubility; type: physicochemical; conditions: aqueous medium (not further specified); read-out: S
[3] = as §1; type: physicochemical; conditions: aqueous medium (not further specified); read-out: S; remark: listed apart in the source
[4] = organism: Canis familiaris; experiment: Relative bioavailability of oxindole prodrugs in dog; type: ADME, organism-based, Canis lupus familiaris; conditions: in vivo
[5] = as §1; type: physicochemical; conditions: aqueous medium (not further specified); read-out: S; remark: listed apart in the source
[6] = Relative bioavailability of oxindole prodrugs in monkey; type: ADME, organism-based; conditions: simiiformes, in vivo
[7] = as §1; type: physicochemical; conditions: aqueous medium (not further specified); read-out: S; remark: listed apart in the source
[8] = Ionization constant for the compound was evaluated; type: physicochemical

## CC(C)OC(=O)OC(C)O/C(=C1/C(=O)N(C(N)=O)c2cc(Cl)c(F)cc21)c1cccs1 (stereo not drawn)
[1]
  Relative F%: 12

## NC(=O)N1C(=O)/C(=C(/OCOC(=O)c2ccccc2)c2cccs2)c2cc(F)c(Cl)cc21
[1]
  Relative F%: 0

## CC(C)C(N)C(=O)OCO/C(=C1/C(=O)N(C(N)=O)c2cc(Cl)c(F)cc21)c1cccs1.Cc1ccc(S(=O)(=O)O)cc1 (stereo not drawn)
[1]
  Relative F%: 27

## NC(=O)N1C(=O)/C(=C(/OCOC(=O)COCc2ccccc2)c2cccs2)c2cc(F)c(Cl)cc21
[1]
  Relative F%: 42

## CCOC(=O)O/C(=C1\C(=O)N(C(N)=O)c2cc(Cl)c(F)cc21)c1cccs1
[1]
  Relative F%: 3.5
[2]
  solubility: 0.023 µg/mL (≈ 0.056 µM)

## NC(=O)N1C(=O)/C(=C(\OC(=O)c2ccccc2)c2cccs2)c2cc(F)c(Cl)cc21
[1]
  Relative F%: 0

## CC(=O)OC(C)O/C(=C1/C(=O)N(C(N)=O)c2cc(Cl)c(F)cc21)c1cccs1 (stereo not drawn)
[1]
  Relative F%: 2.3
[2]
  solubility: 0.04 µg/mL (≈ 0.0942 µM)

## NC(=O)N1C(=O)/C(=C(\OC(=O)c2cccnc2)c2cccs2)c2cc(F)c(Cl)cc21
[1]
  Relative F%: 0
[2]
  solubility: < 0.06 µg/mL
[3]
  solubility: < 0.06 µg/mL

## CC(=O)OCC(=O)OCO/C(=C1/C(=O)N(C(N)=O)c2cc(Cl)c(F)cc21)c1cccs1
[1]
  Relative F%: 17
[2]
  solubility: < 0.02 µg/mL

## CC(C)CC(N)C(=O)OCO/C(=C1/C(=O)N(C(N)=O)c2cc(Cl)c(F)cc21)c1cccs1.Cc1ccc(S(=O)(=O)O)cc1 (stereo not drawn)
[1]
  Relative F%: 81

## CC(O)C(=O)OCO/C(=C1/C(=O)N(C(N)=O)c2cc(Cl)c(F)cc21)c1cccs1 (stereo not drawn)
[4]
  Relative bioavailability: 22
[1]
  Relative F%: 90
[5]
  solubility: 0.38 µg/mL (≈ 0.862 µM)

## NC(=O)N1C(=O)/C(=C(\OC(=O)c2ccncc2)c2cccs2)c2cc(F)c(Cl)cc21
[1]
  Relative F%: 2.2
[2]
  solubility: 0.32 µg/mL (≈ 0.721 µM)
[3]
  solubility: < 0.07 µg/mL

## CCOC(=O)CCC(=O)O/C(=C1\C(=O)N(C(N)=O)c2cc(Cl)c(F)cc21)c1cccs1
[1]
  Relative F%: 3.5

## CCC(=O)O/C(=C1\C(=O)N(C(N)=O)c2cc(Cl)c(F)cc21)c1cccs1
[1]
  Relative F%: 6.6
[2]
  solubility: 0.003 µg/mL (≈ 0.0076 µM)

## O=C(c1cccs1)c1c2cc(F)c(Cl)cc2n2c(=O)[nH]c(=O)oc12
[1]
  Relative F%: 25
[2]
  solubility: 17 µg/mL (≈ 46.6 µM)

## CC(C)(C)OC(=O)NCC(=O)OCO/C(=C1/C(=O)N(C(N)=O)c2cc(Cl)c(F)cc21)c1cccs1
[1]
  Relative F%: 0
[2]
  solubility: 0.06 µg/mL (≈ 0.114 µM)

## CCC(OC)C(=O)OCO/C(=C1/C(=O)N(C(N)=O)c2cc(Cl)c(F)cc21)c1cccs1 (stereo not drawn)
[1]
  Relative F%: 93

## CC(=O)O/C(=C1\C(=O)N(C(N)=O)c2cc(Cl)c(F)cc21)c1cccs1
[1]
  Relative F%: 14
[2]
  solubility: 0.011 µg/mL (≈ 0.0289 µM)

## CCOC(=O)OC(C)O/C(=C1/C(=O)N(C(N)=O)c2cc(Cl)c(F)cc21)c1cccs1 (stereo not drawn)
[4]
  Relative bioavailability: 1.4
[1]
  Relative F%: 26
[2]
  solubility: 0.009 µg/mL (≈ 0.0198 µM)

## COCC(=O)OCO/C(=C1/C(=O)N(C(N)=O)c2cc(Cl)c(F)cc21)c1cccs1
[1]
  Relative F%: 62

## CC(C)(C)C(=O)O/C(=C1\C(=O)N(C(N)=O)c2cc(Cl)c(F)cc21)c1cccs1
[1]
  Relative F%: 3.7

## NC(=O)N1C(=O)/C(=C(/OC(=O)/C=C/c2ccccc2)c2cccs2)c2cc(F)c(Cl)cc21
[1]
  Relative F%: 4

## CCCCC(=O)O/C(=C1\C(=O)N(C(N)=O)c2cc(Cl)c(F)cc21)c1cccs1
[1]
  Relative F%: 17
[2]
  solubility: 0.013 µg/mL (≈ 0.0307 µM)

## CC(NC(=O)OC(C)(C)C)C(=O)OCO/C(=C1/C(=O)N(C(N)=O)c2cc(Cl)c(F)cc21)c1cccs1 (stereo not drawn)
[1]
  Relative F%: 20

## CCN(CC)C(=O)COC(=O)CCC(=O)O/C(=C1/C(=O)N(C(N)=O)c2cc(Cl)c(F)cc21)c1cccs1
[1]
  Relative F%: 16

## CCCCCCCCOC(=O)O/C(=C1/C(=O)N(C(N)=O)c2cc(Cl)c(F)cc21)c1cccs1
[1]
  Relative F%: 5.7

## NC(=O)N1C(=O)/C(=C(\OC(=O)c2ccccn2)c2cccs2)c2cc(F)c(Cl)cc21
[1]
  Relative F%: 1.6
[2]
  solubility: < 0.06 µg/mL
[3]
  solubility: < 0.06 µg/mL

## CC(=O)OCC(=O)O/C(=C1\C(=O)N(C(N)=O)c2cc(Cl)c(F)cc21)c1cccs1
[1]
  Relative F%: 6.6

## Cc1ccc(S(=O)(=O)O)cc1.NCC(=O)OCO/C(=C1/C(=O)N(C(N)=O)c2cc(Cl)c(F)cc21)c1cccs1
[4]
  Relative bioavailability: 78
[1]
  Relative F%: 46

## COC(C)C(=O)OCO/C(=C1/C(=O)N(C(N)=O)c2cc(Cl)c(F)cc21)c1cccs1 (stereo not drawn)
[1]
  Relative F%: 45

## C[C@@H](N)C(=O)OCO/C(=C1/C(=O)N(C(N)=O)c2cc(Cl)c(F)cc21)c1cccs1.Cc1ccc(S(=O)(=O)O)cc1
[4]
  Relative bioavailability: 78
[6]
  Relative bioavailability: 78
[1]
  Relative F%: 80
[5]
  solubility: 150 µg/mL

## COCC(=O)O/C(=C1\C(=O)N(C(N)=O)c2cc(Cl)c(F)cc21)c1cccs1
[1]
  Relative F%: 8.9

## CCCC(OCc1ccccc1)C(=O)OCO/C(=C1/C(=O)N(C(N)=O)c2cc(Cl)c(F)cc21)c1cccs1 (stereo not drawn)
[4]
  Relative bioavailability: 7.5
[1]
  Relative F%: 58

## NC(=O)N1C(=O)/C(=C(\OC(=O)c2cccc(C(=O)O)c2)c2cccs2)c2cc(F)c(Cl)cc21
[1]
  Relative F%: 4.2
[2]
  solubility: 0.58 µg/mL (≈ 1.19 µM)

## COC(=O)O/C(=C1\C(=O)N(C(N)=O)c2cc(Cl)c(F)cc21)c1cccs1
[1]
  Relative F%: 13

## CCN(CC)C(=O)OCC(=O)OCO/C(=C1/C(=O)N(C(N)=O)c2cc(Cl)c(F)cc21)c1cccs1
[1]
  Relative F%: 36

## CCOC(=O)/C=C/C(=O)O/C(=C1/C(=O)N(C(N)=O)c2cc(Cl)c(F)cc21)c1cccs1
[4]
  Relative bioavailability: 6.4
[1]
  Relative F%: 21
[2]
  solubility: < 0.02 µg/mL

## CCC(OCc1ccccc1)C(=O)OCO/C(=C1/C(=O)N(C(N)=O)c2cc(Cl)c(F)cc21)c1cccs1 (stereo not drawn)
[4]
  Relative bioavailability: 12
[1]
  Relative F%: 86

## CC(C)(C)C(=O)OCO/C(=C1/C(=O)N(C(N)=O)c2cc(Cl)c(F)cc21)c1cccs1
[1]
  Relative F%: 0

## NC(=O)N1C(=O)/C(=C(/OC(=O)/C=C/C(=O)O)c2cccs2)c2cc(F)c(Cl)cc21
[4]
  Relative bioavailability: 91
[6]
  Relative bioavailability: 73
[1]
  Relative F%: 95
[2]
  solubility: 0.08 µg/mL (≈ 0.183 µM)
[5]
  solubility: 2.5 µg/mL (≈ 5.72 µM)
[7]
  solubility: 24 µg/mL (≈ 54.9 µM)

## COCC(=O)OC(C)O/C(=C1/C(=O)N(C(N)=O)c2cc(Cl)c(F)cc21)c1cccs1 (stereo not drawn)
[4]
  Relative bioavailability: 5.2
[1]
  Relative F%: 47
[2]
  solubility: 0.34 µg/mL (≈ 0.747 µM)

## Cl.Cl.NCCCCC(N)C(=O)OCO/C(=C1/C(=O)N(C(N)=O)c2cc(Cl)c(F)cc21)c1cccs1 (stereo not drawn)
[1]
  Relative F%: 49

## CC(C)OC(=O)O/C(=C1/C(=O)N(C(N)=O)c2cc(Cl)c(F)cc21)c1cccs1 (stereo in doubt; 32)
[1]
  Relative F%: 0.6

## CC(C)OC(=O)O/C(=C1/C(=O)N(C(N)=O)c2cc(Cl)c(F)cc21)c1cccs1 (stereo in doubt; 33)
[1]
  Relative F%: 9.9

## NC(=O)N1C(=O)C(=C(O)c2cccs2)c2cc(F)c(Cl)cc21 [ILONIDAP]
[4]
  Relative bioavailability: 100
[6]
  Relative bioavailability: 100
[1]
  Relative F%: 100
[2]
  solubility: 40 µg/mL (≈ 118 µM)
[8]
  pKa: 3.5
